Laboratory results: patent US11279714B2, “Anti-infective compounds” (priority 2014, dated 2022)

Experiments:
Format in all cases: cell-based, Mycobacterium
Settings in all cases: REMA, 1 week + 1 day resazurin; relative to H37Rv
[1] = test system: MDR-33 (clinical isolate of multidrug-resistance tuberculosis)
[2] = test system: MDR-137 (clinical isolate of multidrug-resistance tuberculosis)
[3] = test system: MDR-146 (clinical isolate of multidrug-resistance tuberculosis)

SMILES: Cc1nc2cc(NC(=O)c3cc4sc(N5CCOCC5)nc4s3)ccc2o1 [Compound 83]
- Antibacterial activity MDR-33 [1]: +++ (+++ indicates <2 times of MIC50 on wild type strain (H37Rv))
- Antibacterial activity MDR-137 [2]: +++ (+++ indicates <2 times of MIC50 on wild type strain (H37Rv))
- Antibacterial activity MDR-146 [3]: +++ (+++ indicates <2 times of MIC50 on wild type strain (H37Rv))

SMILES: COc1ccc(NC(=O)c2cc3sc(N4CCC(C(=O)N(C)C)CC4)nc3s2)cc1 [Compound 127]
- Antibacterial activity MDR-33 [1]: +++ (+++ indicates <2 times of MIC50 on wild type strain (H37Rv))
- Antibacterial activity MDR-137 [2]: +++ (+++ indicates <2 times of MIC50 on wild type strain (H37Rv))
- Antibacterial activity MDR-146 [3]: +++ (+++ indicates <2 times of MIC50 on wild type strain (H37Rv))

SMILES: Cc1nc2cc(NC(=O)c3cc4sc(N5CCC(CO)CC5)nc4s3)ccc2o1 [Compound 144]
- Antibacterial activity MDR-33 [1]: +++ (+++ indicates <2 times of MIC50 on wild type strain (H37Rv))
- Antibacterial activity MDR-137 [2]: +++ (+++ indicates <2 times of MIC50 on wild type strain (H37Rv))
- Antibacterial activity MDR-146 [3]: +++ (+++ indicates <2 times of MIC50 on wild type strain (H37Rv))

SMILES: COCCN(C)c1nc2sc(C(=O)Nc3ccc4oc(C)nc4c3)cc2s1 [Compound 202]
- Antibacterial activity MDR-33 [1]: +++ (+++ indicates <2 times of MIC50 on wild type strain (H37Rv))
- Antibacterial activity MDR-137 [2]: +++ (+++ indicates <2 times of MIC50 on wild type strain (H37Rv))
- Antibacterial activity MDR-146 [3]: +++ (+++ indicates <2 times of MIC50 on wild type strain (H37Rv))
